According to the NIST ThermoML archive (doi:10.1016/j.fluid.2016.09.021):

Conditions: Liquid, Vibrating tube method

CCCCCCC [heptane]
mass density [kg/m3]
Conditions | 293 K | 313 K | 333 K | 353 K | 373 K | 393 K | 413 K | 433 K | 448 K | 468 K
2100 kPa | 687.2 | 671.9 | 654.8 | 636.1 | 616.9 | 596.5 | 574.1 | 550.1 | 531.1 | 501.1
3000 kPa | 688.1 | 672.9 | 656 | 637.6 | 618.6 | 598.7 | 577 | 553.9 | 535.6 | 507.8
4000 kPa | 688.9 | 673.9 | 657.7 | 639.1 | 620.3 | 600.8 | 579.6 | 557.5 | 539.8 | 513.4
5000 kPa | 689.8 | 674.8 | 658.4 | 640.4 | 622 | 602.8 | 582.1 | 560.7 | 543.6 | 518.6
10000 kPa | 694 | 679.4 | 663.9 | 647.1 | 629.9 | 612.2 | 593.6 | 574.6 | 560 | 539.1
20000 kPa | 701.8 | 688 | 673.8 | 658.5 | 643.2 | 627.8 | 611.9 | 595.4 | 583 | 566.5
30000 kPa | 708.7 | 695.4 | 682.3 | 668 | 654.1 | 640.2 | 626 | 611.5 | 600.3 | 586.2
40000 kPa | 714.8 | 702.2 | 689.5 | 676.7 | 663.6 | 650.8 | 637.6 | 624.3 | 614.4 | 601.3
49900 kPa | 720.8 | 708.5 | 696.5 | 684.5 | 672 | 659.9 | 647.8 | 635.2 | 626.2 | 614.2
59900 kPa | 726.4 | 714.3 | 703.1 | 691.3 | 679.6 | 668.3 | 656.9 | 644.7 | 636.6 | 625.3
69900 kPa | 731.6 | 720 | 708.9 | 697.9 | 686.7 | 675.9 | 664.7 | 653.5 | 646.2 | 635.2
79900 kPa | 736.8 | 725.2 | 714.5 | 703.8 | 693.3 | 682.9 | 672.4 | 661.6 | 654.4 | 644.1
89900 kPa | 741.5 | 730.3 | 720 | 709.7 | 699.4 | 689.5 | 679.3 | 669 | 661.8 | 652.3
99900 kPa | 746.1 | 735.1 | 725.2 | 715 | 705.2 | 695.7 | 685.8 | 676 | 669.2 | 659.9
109900 kPa | 750.6 | 739.9 | 729.8 | 720.3 | 710.7 | 701.4 | 692.2 | 682.3 | 675.8 | 667.2
119900 kPa | 754.9 | 744.3 | 734.7 | 725.3 | 716 | 706.8 | 698 | 688.5 | 682.3 | 673.9
129900 kPa | 759.2 | 748.7 | 739.3 | 730.1 | 720.9 | 712.1 | 703.6 | 694.3 | 688.4 | 679.9
134900 kPa | 761.2 | 751 | 741.4 | 732.4 | 723.3 | 714.7 | 706.2 | 697.2 | 691.4 | 682.8
137400 kPa | 762.2 | 751.9 | 742.6 | 733.5 | 724.5 | 715.8 | 707.4 | 698.6 | 692.6 | 684.3
